From patent publication US7163952B2, “Azole compound and medicinal use thereof” (Japan Tobacco Inc., priority 2001, dated 2007)

Row | melting point | Structure (SMILES)
1 | 125 to 127 °C | CN(Cc1ccc(Cl)c(Cl)c1)c1ccc(-c2csc(N(Cc3ccc(C(=O)O)cc3)CC3CCCCC3)n2)cc1 [Example 118, 4-((N-cyclohexylmethyl-N-(4-(4-(N-(3,4-dichlorobenzyl)-N-methylamino)phenyl)-2-thiazolyl)amino)methyl)benzoic acid]
2 | 139 to 141 °C | C=CCN(Cc1ccc(C2CCCCC2)cc1)c1ccc(-c2csc(N(C)Cc3ccc(C(=O)O)cc3)n2)cc1 [Example 119, 4-((N-(4-(4-(N-allyl-N-(4-cyclohexylbenzyl)amino)phenyl)-2-thiazolyl)-N-methylamino)methyl)benzoic acid]
3 | 223 to 225 °C | CN(c1ccc(C(=O)O)cc1)c1nc(-c2ccc(NCc3ccc(Cl)c(Cl)c3)cc2)cs1 [Example 128, 4-(N-(4-(4-(3,4-dichlorobenzylamino)phenyl)-2-thiazolyl)-N-methylamino)benzoic acid]
4 | 187 to 189 °C | O=C(O)c1ccc(N(CC2CCCCC2)c2nc(-c3ccc(NCc4ccc(Cl)c(Cl)c4)cc3)cs2)cc1 [Example 129, 4-(N-cyclohexylmethyl-N-(4-(4-(3,4-dichlorobenzylamino)phenyl)-2-thiazolyl)amino)benzoic acid]
5 | 200 to 202 °C | CC(C)c1ccc(CNc2ccc(-c3csc(N(CC4CCCCC4)c4ccc(C(=O)O)cc4)n3)cc2)cc1 [Example 130, 4-(N-cyclohexylmethyl-N-(4-(4-(4-isopropylbenzylamino)phenyl)-2-thiazolyl)amino)benzoic acid]
6 | 167 to 169 °C | CC(C)Cc1ccc(CNc2ccc(-c3csc(N(CC4CCCCC4)c4ccc(C(=O)O)cc4)n3)cc2)cc1 [Example 131, 4-(N-cyclohexylmethyl-N-(4-(4-(4-isobutylbenzylamino)phenyl)-2-thiazolyl)amino)benzoic acid]
7 | 185 to 189 °C | CN(Cc1ccc(C2CCCCC2)cc1)c1ccc(-c2csc(N(C)c3ccc(C(=O)O)cc3)n2)cc1 [Example 132, 4-(N-(4-(4-(N-(4-cyclohexylbenzyl)-N-methylamino)phenyl)-2-thiazolyl)-N-methylamino)benzoic acid]
8 | 230 °C (dec.) | CN(c1ccc(C(=O)O)cc1)c1nc(-c2ccc(NCc3ccc(C(F)(F)F)cc3)cc2)cs1 [Example 133, 4-(N-methyl-N-(4-(4-(4-trifluoromethylbenzylamino)phenyl)-2-thiazolyl)amino)benzoic acid]
9 | 199 to 203 °C | O=C(O)c1ccc(N(CC2CCCCC2)c2nc(-c3ccc(NCc4ccc(C(F)(F)F)cc4)cc3)cs2)cc1 [Example 134, 4-(N-cyclohexylmethyl-N-(4-(4-(4-trifluoromethylbenzylamino)phenyl)-2-thiazolyl)amino)benzoic acid]
10 | 218 to 220 °C | CN(Cc1ccc(C(F)(F)F)cc1)c1ccc(-c2csc(N(C)c3ccc(C(=O)O)cc3)n2)cc1 [Example 137, 4-(N-methyl-N-(4-(4-(N-methyl-N-(4-trifluoromethylbenzyl)amino)phenyl)-2-thiazolyl)amino)benzoic acid]
11 | 235 to 236 °C | O=C(O)c1ccc(Nc2nc(-c3cccc(OCc4ccc(C5CCCCC5)cc4)c3)cs2)cc1 [Example 138, 4-(4-(3-(4-cyclohexylbenzyloxy)phenyl)-2-thiazolylamino)benzoic acid]
12 | 250 °C (dec.) | CN(c1ccc(C(=O)O)cc1)c1nc(-c2cccc(OCc3ccc(C4CCCCC4)cc3)c2)cs1 [Example 139, 4-(N-(4-(3-(4-cyclohexylbenzyloxy)phenyl)-2-thiazolyl)-N-methylamino)benzoic acid]
13 | 179 to 180 °C | CCN(c1ccc(C(=O)O)cc1)c1nc(-c2cccc(OCc3ccc(C4CCCCC4)cc3)c2)cs1 [Example 140, 4-(N-(4-(3-(4-cyclohexylbenzyloxy)phenyl)-2-thiazolyl)-N-ethylamino)benzoic acid]
14 | 189 to 190 °C | CC(C)N(c1ccc(C(=O)O)cc1)c1nc(-c2cccc(OCc3ccc(C4CCCCC4)cc3)c2)cs1 [Example 141, 4-(N-(4-(3-(4-cyclohexylbenzyloxy)phenyl)-2-thiazolyl)-N-isopropylamino)benzoic acid]
15 | 195 to 197 °C | O=C(O)c1ccc(N(CC2CCCCC2)c2nc(-c3cccc(OCc4ccc(C5CCCCC5)cc4)c3)cs2)cc1 [Example 142, 4-(N-(4-(3-(4-cyclohexylbenzyloxy)phenyl)-2-thiazolyl)-N-cyclohexylmethylamino)benzoic acid]
16 | 228 to 230 °C | CC(C)N(Cc1ccc(C(=O)O)cc1)c1nc(-c2cccc(NC(=O)c3ccc(C4CCCCC4)cc3)c2)cs1 [Example 146, 4-((N-(4-(3-(4-cyclohexylbenzoylamino)phenyl)-2-thiazolyl)-N-isopropylamino)methyl)benzoic acid]
17 | 208 to 211 °C | O=C(O)c1ccc(Nc2nc(-c3cc(Cl)ccc3OCc3ccccc3)cs2)cc1 [Example 148, 4-(4-(2-benzyloxy-5-chlorophenyl)-2-thiazolylamino)benzoic acid]

Row | melting point | Structure (SMILES)
18 | 152 to 154 °C | CC(C)(c1ccc(C(=O)O)cc1)c1nc(-c2cc(Cl)ccc2OCc2ccccc2)cs1 [Example 149, 4-(1-(4-(2-benzyloxy-5-chlorophenyl)-2-thiazolyl)-1-methylethyl)benzoic acid]
19 | 230 °C (dec.) | O=C(O)c1ccc(Nc2nc(-c3cc(Cl)ccc3OCc3ccccc3)cs2)c(OCCC2CCCCC2)c1 [Example 150, 4-(4-(2-benzyloxy-5-chlorophenyl)-2-thiazolylamino)-3-(2-cyclohexylethoxy)benzoic acid]
20 | 211 to 212 °C | CN(c1ccc(C(=O)O)cc1)c1nc(-c2cc(Cl)ccc2OCc2ccccc2)cs1 [Example 151, 4-(N-(4-(2-benzyloxy-5-chlorophenyl)-2-thiazolyl)-N-methylamino)benzoic acid]
21 | 160 to 163 °C | O=C(O)c1ccc(N(CCC2CCCCC2)c2nc(-c3cc(Cl)ccc3OCc3ccccc3)cs2)cc1 [Example 152, 4-(N-(4-(2-benzyloxy-5-chlorophenyl)-2-thiazolyl)-N-(2-cyclohexylethyl)amino)benzoic acid]
22 | 152 to 155 °C | O=C(O)c1ccc(N(CCOc2ccccc2)c2nc(-c3cc(Cl)ccc3OCc3ccccc3)cs2)cc1 [Example 153, 4-(N-(4-(2-benzyloxy-5-chlorophenyl)-2-thiazolyl)-N-(2-phenoxyethyl)amino)benzoic acid]
23 | 184 to 185 °C | COc1ccc(OCc2ccccc2)c(-c2csc(Nc3ccc(C(=O)O)cc3)n2)c1 [Example 154, 4-(4-(2-benzyloxy-5-methoxyphenyl)-2-thiazolylamino)benzoic acid]
24 | 218 to 219 °C | COc1ccc(OCc2ccc(C(F)(F)F)cc2)c(-c2csc(Nc3ccc(C(=O)O)cc3)n2)c1 [Example 155, 4-(4-(5-methoxy-2-(4-trifluoromethylbenzyloxy)phenyl)-2-thiazolylamino)benzoic acid]
25 | 218 to 221 °C | COc1ccc(OCc2ccccc2)c(-c2csc(Nc3ccc(C(=O)O)cc3OCc3ccccc3)n2)c1 [Example 156, 3-benzyloxy-4-(4-(2-benzyloxy-5-methoxyphenyl)-2-thiazolylamino)benzoic acid]
26 | 230 to 234 °C | COc1ccc(OCc2ccc(C3CCCCC3)cc2)c(-c2csc(Nc3ccc(C(=O)O)cc3)n2)c1 [Example 157, 4-(4-(2-(4-cyclohexylbenzyloxy)-5-methoxyphenyl)-2-thiazolylamino)benzoic acid]
27 | 212 to 213 °C | O=C(O)c1cc(Cc2nc(-c3cc(Cl)ccc3OCc3ccccc3)cs2)ccc1O [Example 158, 5-(4-(2-benzyloxy-5-chlorophenyl)-2-thiazolylmethyl)-2-hydroxybenzoic acid]
28 | 194 to 196 °C | O=C(O)c1ccc(N(Cc2ccc(C(F)(F)F)cc2)c2nc(-c3cc(Cl)ccc3OCc3ccccc3)cs2)cc1 [Example 159, 4-(N-(4-(2-benzyloxy-5-chlorophenyl)-2-thiazolyl)-N-(4-trifluoromethylbenzyl)amino)benzoic acid]
29 | 184 to 185 °C | O=C(O)c1ccc(N(CC2CCCCC2)c2nc(-c3cc(Cl)ccc3OCc3ccccc3)cs2)cc1 [Example 160, 4-(N-(4-(2-benzyloxy-5-chlorophenyl)-2-thiazolyl)-N-cyclohexylmethylamino)benzoic acid]
30 | 210 to 211 °C | O=C(O)c1ccc(CNc2nc(-c3cc(Cl)ccc3OCc3ccccc3)cs2)cc1 [Example 162, 4-((4-(2-benzyloxy-5-chlorophenyl)-2-thiazolylamino)methyl)benzoic acid]
31 | 169 to 171 °C | CN(Cc1ccc(C(=O)O)cc1)c1nc(-c2cc(Cl)ccc2OCc2ccccc2)cs1 [Example 163, 4-((N-(4-(2-benzyloxy-5-chlorophenyl)-2-thiazolyl)-N-methylamino)methyl)benzoic acid]
32 | 158 to 160 °C | O=C(O)c1ccc(CN(CCC2CCCCC2)c2nc(-c3cc(Cl)ccc3OCc3ccccc3)cs2)cc1 [Example 164, 4-((N-(4-(2-benzyloxy-5-chlorophenyl)-2-thiazolyl)-N-(2-cyclohexylethyl)amino)methyl)benzoic acid]
33 | 171 to 172 °C | O=C(O)c1ccc(CN(CCC2CCCCC2)c2nc(-c3cc(Cl)ccc3OCc3ccc(C(F)(F)F)cc3)cs2)cc1 [Example 165, 4-((N-(4-(5-chloro-2-(4-trifluoromethylbenzyloxy)phenyl)-2-thiazolyl)-N-(2-cyclohexylethyl)amino)methyl)benzoic acid]
34 | 183 to 184 °C | COc1ccc(OCc2ccc(C(F)(F)F)cc2)c(-c2csc(N(CCC3CCCCC3)Cc3ccc(C(=O)O)cc3)n2)c1 [Example 166, 4-((N-(2-cyclohexylethyl)-N-(4-(5-methoxy-2-(4-trifluoromethylbenzyloxy)phenyl)-2-thiazolyl)amino)methyl)benzoic acid]

Row | Structure (SMILES) | melting point
35 | CN(Cc1ccc(C(=O)[O-])cc1)c1nc(-c2ccc(OCc3ccc(C4CCCCC4)cc3)cc2)cs1.[Na+] [Example 120, sodium 4-((N-(4-(4-(4-cyclohexylbenzyloxy)phenyl)-2-thiazolyl)-N-methylamino)methyl)benzoate] | 250 °C (dec.)
